Test [1] relates to db/db mice. Kind of test: Oral glucose tolerance test (OGTT). The settings on record: OGTT in db/db mice, compound i.p. 15 min before oral glucose 1 g/kg, ED50 based on curve fits of AUC0-240 min. Type of test: in vivo. The method, then:
Oral Glucose Tolerance Test (OGTT)
The anti diabetic effect of the present compounds was tested in an oral glucose tolerance test (OGTT). In short, animals were fasted over night, and blood samples were taken from the tip of the tail and the blood glucose measured. The whole blood glucose (mM) concentration was analysed by the immobilised glucose oxidase method using a drop of blood (<5 μl; Elite Autoanalyser, Bayer, Denmark) following the manufacturer's manual. The animals were kept fasted throughout the test. Immediately after the initial blood sample (fasting blood glucose level) test compound or vehicle was administered i.p. Fifteen minutes later an oral dose of glucose ((1 g/kg) Sigma, St. Louis, Mo., U.S.A.)), dissolved in phosphate buffer (pH=7.40) was given, and the animals were returned to their home cages (time=0). […] To analyse the effects of the test compounds on oral glucose tolerance the absolute difference in BG from baseline (fasting BG) was calculated for each time point. The area under the curve (AUC) (FIG. 1-8) for the whole experiment (AUC0-120 min) or (AUC0-240 min) was determined using the trapezoid method. Before starting the experimental series an OGTT was used to stratify animals into groups of 9-10 animals displaying similar glucose tolerances in all groups. Animals displaying excessive glucose excursion 30 min after glucose loading (BG>33 mmol/l) were excluded from the study.

In test [2] the test system is diabetic db/db mice. The conditions noted are these: given systemically; cited from earlier work.
[3] abbreviates: Table 2, another set of experiments.

As usually defined, the ED50 is the dose at which the effect has come halfway, by size or by number of responders. A lower ED50 goes with an effect at a small dose. In test [1] (setting [3]), “Compound 2: Stabilized derivative of Compound 1 (SEQ ID NO: 2), obtained by exposing Compound 1 to H2O2 (HGEGTFTSDLSKQMEEEAVRLFIEWLKDGGPSSGAPPSKKKKKK)” registered an ED50 of 0.011 nmol/kg. The same measure, in the same setting: under “Compound 5: Stabilized derivative of Compound 1 (SEQ ID NO: 5), formed by incubation in NH4HCO3 pH 7.9 at 40° C. (HGEGTFTSDLSKQMEEEAVRLFIEWLKDGGPSSGAPPSKKKKKK)” stands 0.043 nmol/kg. In the case of “Compound 6: Stabilized derivative of Compound 1 (SEQ ID NO: 6), formed by incubation in NH4HCO3 pH 7.9 at 40° C. (HGEGTFTSDLSKQMEEEAVRLFIEWLKDGGPSSGAPPSKKKKKK)”, in test [1] (Table 1), the ED50 came to 0.013 nmol/kg. “Compound 14: Stabilized derivative of Compound 1 (SEQ ID NO: 14), formed by incubation in NH4HCO3 pH 7.9 at 40° C. (HGEGTFTSDLSKQMEEEAVRLFIEWLKDGGPSSGAPPSKKKKKK)”: in test [1] (Table 1), the ED50 was 0.55 nmol/kg. Exendin-4: in test [2], the “lowering of blood glucose levels” value is given as 40%. For “des Pro^36 Exendin-4 (1-39)-K6 [Compound 1]”, the figures for the ED50 in test [1] (Table 1) and in test [1] (setting [3]) were 0.049 nmol/kg and 0.073 nmol/kg, respectively.

Values taken from patent US7544657B2, “Stabilized Exendin-4 compounds” (Zealand Pharma A/S, priority 2002, dated 2009).
